# Source: PubChem BioAssay (NCI)
#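 All cell lines were grown in 96-well plates and treated with compound for 48 hours. TGI: total growth inhibition.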
# Experiments:
# Assay in all cases: NCI tumour cell line growth inhibition, 48 h
# [1] = test system: A549 NSCLC
# [2] = test system: MDA-MB-231 breast
# [3] = test system: CCRF-CEM leukemia
# [4] = test system: U251 CNS
# [5] = test system: COLO 205 colon
# [6] = test system: HS 578T breast
# [7] = test system: T-47D breast
# [8] = test system: MOLT-4 leukemia
# [9] = test system: A498 renal
# [10] = test system: NCI-H522 lung
# [11] = test system: SNB-75 CNS
# [12] = test system: CAKI-1 renal
# [13] = test system: OVCAR-3 ovarian
# [14] = test system: ACHN renal
# [15] = test system: OVCAR-8 ovarian
# [16] = test system: KM12 colon
# [17] = test system: K-562 leukemia
# [18] = test system: HOP-62 NSCLC
# [19] = test system: HT29 colon
# [20] = test system: RXF 393 renal
# [21] = test system: BT-549 breast
# [22] = test system: SNB-19 CNS
# [23] = test system: RPMI-8226 leukemia
# [24] = test system: PC-3 prostate
# [25] = test system: SW-620 colon
# [26] = test system: MALME-3M melanoma
# [27] = test system: DU-145 prostate
# [28] = test system: M14 melanoma
# [29] = test system: SF-295 CNS
# [30] = test system: HOP-92 NSCLC
# [31] = test system: HCT-15 colon
# [32] = test system: EKVX NSCLC
# [33] = test system: UO-31 renal
# [34] = test system: SK-MEL-2 melanoma
# [35] = test system: NCI/ADR-RES ovarian
# [36] = test system: UACC-62 melanoma
# [37] = test system: SK-MEL-28 melanoma
# [38] = test system: MDA-MB-435
# [39] = test system: TK-10 renal
# [40] = test system: NCI-H226 lung
# [41] = test system: LOX IMVI melanoma
# [42] = test system: OVCAR-5 ovarian
# [43] = test system: SF-539 CNS
# [44] = test system: SF-268 CNS
# [45] = test system: NCI-H460 lung
# [46] = test system: SK-MEL-5 melanoma
# [47] = test system: HCT-116 colon
# [48] = test system: 786-0 renal
# [49] = test system: MDA-N
# [50] = test system: NCI-H23 lung
# [51] = test system: IGROV1 ovarian
# [52] = test system: SK-OV-3 ovarian
# [53] = test system: UACC-257 melanoma
# [54] = test system: HL-60(TB) leukemia
# [55] = test system: SN12C renal
# [56] = test system: MCF7 breast
# [57] = test system: OVCAR-4 ovarian
structure (smiles),measurement,setting,value
N#C[C@H](C(=O)c1ccccc1F)c1nc2ccccc2s1,TGI,[1],> 100 µM
same,TGI,[2],> 100 µM
same,TGI,[3],73.9 µM
same,TGI,[4],> 100 µM
same,TGI,[5],53.8 µM
same,TGI,[6],> 100 µM
same,TGI,[7],> 100 µM
same,TGI,[8],96.1 µM
same,TGI,[9],> 100 µM
same,TGI,[10],69.3 µM
same,TGI,[11],> 100 µM
same,TGI,[12],> 100 µM
same,TGI,[13],63.7 µM
same,TGI,[14],> 100 µM
same,TGI,[15],> 100 µM
same,TGI,[16],38.6 µM
same,TGI,[17],> 100 µM
same,TGI,[18],> 100 µM
same,TGI,[19],> 100 µM
same,TGI,[20],> 100 µM
same,TGI,[21],> 100 µM
same,TGI,[22],> 100 µM
same,TGI,[23],> 100 µM
same,TGI,[24],> 100 µM
same,TGI,[25],> 100 µM
same,TGI,[26],56.2 µM
same,TGI,[27],> 100 µM
same,TGI,[28],> 100 µM
same,TGI,[29],77.2 µM
same,TGI,[30],> 100 µM
same,TGI,[31],> 100 µM
same,TGI,[32],> 100 µM
same,TGI,[33],> 100 µM
same,TGI,[34],51.1 µM
same,TGI,[35],> 100 µM
same,TGI,[36],> 100 µM
same,TGI,[37],> 100 µM
same,TGI,[38],> 100 µM
same,TGI,[39],> 100 µM
same,TGI,[40],> 100 µM
same,TGI,[41],> 100 µM
same,TGI,[42],> 100 µM
same,TGI,[43],59.8 µM
same,TGI,[44],> 100 µM
same,TGI,[45],94.2 µM
same,TGI,[46],> 100 µM
same,TGI,[47],61.3 µM
same,TGI,[48],> 100 µM
same,TGI,[49],> 100 µM
same,TGI,[50],> 100 µM
same,TGI,[51],> 100 µM
same,TGI,[52],> 100 µM
same,TGI,[53],> 100 µM
same,TGI,[54],79.2 µM
same,TGI,[55],> 100 µM
CCOC(=O)c1ccc2c(c1)Cc1cc([N+](=O)[O-])ccc1-2,TGI,[1],> 100 µM
same,TGI,[2],> 100 µM
same,TGI,[56],71.2 µM
same,TGI,[3],> 100 µM
same,TGI,[4],> 100 µM
same,TGI,[5],78.6 µM
same,TGI,[6],> 100 µM
same,TGI,[7],> 100 µM
same,TGI,[8],51.6 µM
same,TGI,[9],> 100 µM
same,TGI,[57],56 µM
same,TGI,[12],> 100 µM
same,TGI,[13],> 100 µM
same,TGI,[14],> 100 µM
same,TGI,[15],> 100 µM
same,TGI,[16],> 100 µM
same,TGI,[17],> 100 µM
same,TGI,[18],> 100 µM
same,TGI,[19],86.4 µM
same,TGI,[20],55.5 µM
same,TGI,[21],94.2 µM
same,TGI,[22],> 100 µM
same,TGI,[23],> 100 µM
same,TGI,[24],> 100 µM
same,TGI,[25],> 100 µM
same,TGI,[26],> 100 µM
same,TGI,[27],> 100 µM
same,TGI,[28],> 100 µM
same,TGI,[29],> 100 µM
same,TGI,[30],> 100 µM
same,TGI,[31],> 100 µM
same,TGI,[32],50.6 µM
same,TGI,[33],> 100 µM
same,TGI,[35],99.4 µM
same,TGI,[36],> 100 µM
same,TGI,[37],> 100 µM
same,TGI,[38],> 100 µM
same,TGI,[39],86.5 µM
same,TGI,[40],51.2 µM
same,TGI,[41],> 100 µM
same,TGI,[42],> 100 µM
same,TGI,[43],> 100 µM
same,TGI,[44],88 µM
same,TGI,[45],> 100 µM
same,TGI,[46],44.2 µM
same,TGI,[47],> 100 µM
same,TGI,[48],> 100 µM
same,TGI,[49],> 100 µM
same,TGI,[50],> 100 µM
same,TGI,[51],> 100 µM
same,TGI,[52],> 100 µM
same,TGI,[53],> 100 µM
same,TGI,[54],> 100 µM
same,TGI,[55],> 100 µM
